#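 Tested at 5 concentrations; 48 h exposure; 96-well plates; endpoints linearly interpolated, else capped at highest concentration. GI50 = concentration required for 50% inhibition of growth. TGI marks complete inhibition of growth.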
# Experiments:
# Assay in all cases: inhibition of tumour cell growth, NCI panel, 48 h
# 786-0 renal = tested on: 786-0 renal
# A498 renal = tested on: A498 renal
# A549 NSCLC = tested on: A549 NSCLC
# ACHN renal = tested on: ACHN renal
# BT-549 breast = tested on: BT-549 breast
# CAKI-1 renal = tested on: CAKI-1 renal
# CCRF-CEM leukemia = tested on: CCRF-CEM leukemia
# COLO 205 colon = tested on: COLO 205 colon
# DU-145 prostate = tested on: DU-145 prostate
# EKVX NSCLC = tested on: EKVX NSCLC
# HCC-2998 colon = tested on: HCC-2998 colon
# HCT-116 colon = tested on: HCT-116 colon
# HCT-15 colon = tested on: HCT-15 colon
# HL-60(TB) leukemia = tested on: HL-60(TB) leukemia
# HOP-62 NSCLC = tested on: HOP-62 NSCLC
# HOP-92 NSCLC = tested on: HOP-92 NSCLC
# HS 578T breast = tested on: HS 578T breast
# HT29 colon = tested on: HT29 colon
# IGROV1 ovarian = tested on: IGROV1 ovarian
# K-562 leukemia = tested on: K-562 leukemia
# KM12 colon = tested on: KM12 colon
# LOX IMVI melanoma = tested on: LOX IMVI melanoma
# M14 melanoma = tested on: M14 melanoma
# MALME-3M melanoma = tested on: MALME-3M melanoma
# MCF7 breast = tested on: MCF7 breast
# MDA-MB-231 breast = tested on: MDA-MB-231 breast
# MDA-MB-435 = tested on: MDA-MB-435
# MOLT-4 leukemia = tested on: MOLT-4 leukemia
# NCI-H226 lung = tested on: NCI-H226 lung
# NCI-H23 lung = tested on: NCI-H23 lung
# NCI-H460 lung = tested on: NCI-H460 lung
# NCI-H522 lung = tested on: NCI-H522 lung
# NCI/ADR-RES ovarian = tested on: NCI/ADR-RES ovarian
# OVCAR-3 ovarian = tested on: OVCAR-3 ovarian
# OVCAR-4 ovarian = tested on: OVCAR-4 ovarian
# OVCAR-5 ovarian = tested on: OVCAR-5 ovarian
# OVCAR-8 ovarian = tested on: OVCAR-8 ovarian
# PC-3 prostate = tested on: PC-3 prostate
# RPMI-8226 leukemia = tested on: RPMI-8226 leukemia
# RXF 393 renal = tested on: RXF 393 renal
# SF-268 CNS = tested on: SF-268 CNS
# SF-295 CNS = tested on: SF-295 CNS
# SF-539 CNS = tested on: SF-539 CNS
# SK-MEL-2 melanoma = tested on: SK-MEL-2 melanoma
# SK-MEL-28 melanoma = tested on: SK-MEL-28 melanoma
# SK-MEL-5 melanoma = tested on: SK-MEL-5 melanoma
# SK-OV-3 ovarian = tested on: SK-OV-3 ovarian
# SN12C renal = tested on: SN12C renal
# SNB-19 CNS = tested on: SNB-19 CNS
# SNB-75 CNS = tested on: SNB-75 CNS
# SR leukemia = tested on: SR leukemia
# SW-620 colon = tested on: SW-620 colon
# T-47D breast = tested on: T-47D breast
# TK-10 renal = tested on: TK-10 renal
# U251 CNS = tested on: U251 CNS
# UACC-257 melanoma = tested on: UACC-257 melanoma
# UACC-62 melanoma = tested on: UACC-62 melanoma
# UO-31 renal = tested on: UO-31 renal
compound,measurement,setting,value
COc1cc(-c2ncn(/C=C\c3nnco3)n2)cc(C(F)(F)F)c1,GI50,786-0 renal,465 nM
same,TGI,786-0 renal,> 51.9 µM
same,GI50,A498 renal,42.1 nM
same,TGI,A498 renal,619 nM
same,GI50,A549 NSCLC,109 nM
same,TGI,A549 NSCLC,> 68 µM
same,GI50,ACHN renal,318 nM
same,TGI,ACHN renal,> 100 µM
same,GI50,BT-549 breast,125 nM
same,TGI,BT-549 breast,14.3 µM
same,GI50,CAKI-1 renal,154 nM
same,TGI,CAKI-1 renal,> 100 µM
same,GI50,CCRF-CEM leukemia,194 nM
same,TGI,CCRF-CEM leukemia,> 100 µM
same,GI50,COLO 205 colon,67.5 nM
same,TGI,COLO 205 colon,> 24.7 µM
same,GI50,DU-145 prostate,416 nM
same,TGI,DU-145 prostate,> 100 µM
same,GI50,EKVX NSCLC,4.66 µM
same,TGI,EKVX NSCLC,> 100 µM
same,GI50,HCC-2998 colon,215 nM
same,TGI,HCC-2998 colon,4.5 µM
same,GI50,HCT-116 colon,153 nM
same,TGI,HCT-116 colon,13.5 µM
same,GI50,HCT-15 colon,282 nM
same,TGI,HCT-15 colon,> 100 µM
same,GI50,HL-60(TB) leukemia,80.9 nM
same,TGI,HL-60(TB) leukemia,13.1 µM
same,GI50,HOP-62 NSCLC,403 nM
same,TGI,HOP-62 NSCLC,> 47 µM
same,GI50,HOP-92 NSCLC,952 nM
same,TGI,HOP-92 NSCLC,46.5 µM
same,GI50,HS 578T breast,488 nM
same,TGI,HS 578T breast,> 100 µM
same,GI50,HT29 colon,191 nM
same,TGI,HT29 colon,50.8 µM
same,GI50,IGROV1 ovarian,1890 nM
same,TGI,IGROV1 ovarian,> 100 µM
same,GI50,K-562 leukemia,122 nM
same,TGI,K-562 leukemia,> 100 µM
same,GI50,KM12 colon,705 nM
same,TGI,KM12 colon,> 39.3 µM
same,GI50,LOX IMVI melanoma,90.6 nM
same,TGI,LOX IMVI melanoma,2020 nM
same,GI50,M14 melanoma,791 nM
same,TGI,M14 melanoma,37.2 µM
same,GI50,MALME-3M melanoma,464 nM
same,TGI,MALME-3M melanoma,> 100 µM
same,GI50,MCF7 breast,179 nM
same,TGI,MCF7 breast,> 33.4 µM
same,GI50,MDA-MB-231 breast,208 nM
same,TGI,MDA-MB-231 breast,> 71.2 µM
same,GI50,MDA-MB-435,89.4 nM
same,TGI,MDA-MB-435,3.33 µM
same,GI50,MOLT-4 leukemia,41.1 nM
same,GI50,NCI-H226 lung,31.2 nM
same,TGI,NCI-H226 lung,4.3 µM
same,GI50,NCI-H23 lung,132 nM
same,TGI,NCI-H23 lung,> 64.8 µM
same,GI50,NCI-H460 lung,43.1 nM
same,TGI,NCI-H460 lung,> 100 µM
same,GI50,NCI-H522 lung,67.1 nM
same,TGI,NCI-H522 lung,1610 nM
same,GI50,NCI/ADR-RES ovarian,200 nM
same,TGI,NCI/ADR-RES ovarian,> 100 µM
same,GI50,OVCAR-3 ovarian,120 nM
same,TGI,OVCAR-3 ovarian,2690 nM
same,GI50,OVCAR-4 ovarian,211 nM
same,TGI,OVCAR-4 ovarian,> 72.4 µM
same,GI50,OVCAR-5 ovarian,1780 nM
same,TGI,OVCAR-5 ovarian,> 100 µM
same,GI50,OVCAR-8 ovarian,81.3 nM
same,TGI,OVCAR-8 ovarian,> 47 µM
same,GI50,PC-3 prostate,189 nM
same,TGI,PC-3 prostate,> 100 µM
same,GI50,RPMI-8226 leukemia,102 nM
same,TGI,RPMI-8226 leukemia,> 89.1 µM
same,GI50,RXF 393 renal,30.7 nM
same,TGI,RXF 393 renal,198 nM
same,GI50,SF-268 CNS,89.1 nM
same,TGI,SF-268 CNS,23.9 µM
same,GI50,SF-295 CNS,80 nM
same,TGI,SF-295 CNS,> 100 µM
same,GI50,SF-539 CNS,29.5 nM
same,TGI,SF-539 CNS,581 nM
same,GI50,SK-MEL-2 melanoma,61.7 nM
same,TGI,SK-MEL-2 melanoma,1150 nM
same,GI50,SK-MEL-28 melanoma,125 nM
same,TGI,SK-MEL-28 melanoma,> 34.6 µM
same,GI50,SK-MEL-5 melanoma,411 nM
same,TGI,SK-MEL-5 melanoma,4.39 µM
same,GI50,SK-OV-3 ovarian,979 nM
same,TGI,SK-OV-3 ovarian,> 100 µM
same,GI50,SN12C renal,723 nM
same,TGI,SN12C renal,> 83.2 µM
same,GI50,SNB-19 CNS,175 nM
same,TGI,SNB-19 CNS,> 100 µM
same,GI50,SNB-75 CNS,86.3 nM
same,TGI,SNB-75 CNS,4.73 µM
same,GI50,SR leukemia,21 nM
same,TGI,SR leukemia,> 100 µM
same,GI50,SW-620 colon,66.3 nM
same,TGI,SW-620 colon,31.7 µM
same,GI50,T-47D breast,571 nM
same,TGI,T-47D breast,> 59.9 µM
same,GI50,TK-10 renal,726 nM
same,TGI,TK-10 renal,23 µM
same,GI50,U251 CNS,66.1 nM
same,TGI,U251 CNS,17.6 µM
same,GI50,UACC-257 melanoma,368 nM
same,TGI,UACC-257 melanoma,> 52.5 µM
same,GI50,UACC-62 melanoma,354 nM
same,TGI,UACC-62 melanoma,13.8 µM
same,GI50,UO-31 renal,247 nM
same,TGI,UO-31 renal,> 100 µM

# From PubChem BioAssay (NCI)
